Reference: patent US9597407B2, “Targeted antimicrobial moieties” (C3 Jian, Inc., priority 2009, dated 2017)
Entries after “also recorded” stand apart in the source; their conditions may differ.

Key:
microorganisms = test: Morphology, biofilm and growth disruption by peptides (Table 5); type: cell-based; set-up: key: A: Peptide aggregates; B: Less hyphal formation; Clumps; Diffuse clumps and small polyps; F: Diffuse growth; H: Thin; I: Growth inhibition; Microcolony formation; Rippled; Small polyps; Thick; W: Halo formation on top, microlonies on bottom
Text: In certain embodiments peptides that induce alterations in phenotype or other biological activities can also be used as antimicrobial effector moieties.

bacteria = test: Binding of targeting peptides to microorganisms (Table 3); settings: preferably 1x PBS; for Target(s) (microorganisms bound by the targeting peptide) / Target(s) (microorganism bound by the targeting peptide): peptide binding in aqueous buffers that varied depending on peptide solubility; for Target(s): microorganism bound by the targeting peptide, binding in aqueous buffers chosen by peptide solubility

## PF-596 (SKMWDKILTILILILELIRELIKL; Peptide with targeting and/or antimicrobial activity)
microorganisms; C. jejuni
  Organism, effect (morphology, biofilm and growth disruption): C. jejuni (D)
microorganisms; E. coli
  Organism, effect (morphology, biofilm and growth disruption): E. coli (C)
microorganisms; E. faecalis
  Organism, effect (morphology, biofilm and growth disruption): E. faecalis (D)
microorganisms; MRSA
  Organism, effect (morphology, biofilm and growth disruption): MRSA (D)
microorganisms; S. epidermidis
  Organism, effect (morphology, biofilm and growth disruption): S. epidermidis (D)
microorganisms; S. pneumoniae
  Organism, effect (morphology, biofilm and growth disruption): S. pneumoniae (D)
bacteria
  Target(s) (microorganisms bound by the targeting peptide): S. epidermidis and M. luteus and P. mirabilis and E. coli and P. aeruginosa and MRSA and E. faecalis

## PF-631 (chain 1 LIIYFSKTGNTARATRQI; chain 2 LIIYFSKTGNTARATRQI; Peptide with targeting and/or antimicrobial activity)
microorganisms; E. faecalis
  Organism, effect (morphology, biofilm and growth disruption): E. faecalis (H)
microorganisms; S. pneumoniae
  Organism, effect (morphology, biofilm and growth disruption): S. pneumoniae (I)
bacteria
  Target(s) (microorganism bound by the targeting peptide): S. epidermidis and P. aeruginosa and C. albicans and MRSA and S. pneumoniae and E. faecalis and C. jeikeium

## PF-659 (chain 1 TVIST; chain 2 TVIST; Peptide with targeting and/or antimicrobial activity)
microorganisms; B. subtilis
  Organism, effect (morphology, biofilm and growth disruption): B. subtilis (H)
microorganisms; MRSA
  Organism, effect (morphology, biofilm and growth disruption): MRSA (R)
microorganisms; S. epidermidis
  Organism, effect (morphology, biofilm and growth disruption): S. epidermidis (M)
microorganisms; S. pneumoniae
  Organism, effect (morphology, biofilm and growth disruption): S. pneumoniae (C)
bacteria
  Target(s) (microorganism bound by the targeting peptide): Mycobacteria spp

## VWENRKKYLENEIERHNVFLKLGQEVIKGLNALASRGR [PF-257]
microorganisms; M. luteus
  Organism, effect: M. luteus (R)
bacteria
  Target(s): S. epidermidis

## KKFKIFVIINWFYHKYIILNFEENF [PF-C085]
microorganisms; S. mutans
  Organism, effect (morphology, biofilm and growth disruption): S. mutans (F)
bacteria
  Target(s) (microorganism bound by the targeting peptide): A. naeslundii; also recorded: F. nucleatum; also recorded: P. gingivalis; also recorded: S. mutans; also recorded: T. denticola

## SFMPEIQKNTIPTQMK [PF-512]
microorganisms; S. pneumoniae
  Organism, effect (morphology, biofilm and growth disruption): S. pneumoniae (H)
bacteria
  Target(s) (microorganisms bound by the targeting peptide): S. pneumoniae; also recorded: C. jeikeium

## PF-128 (GIKVVAARFEEIQFSENFDSIILA; Peptide with targeting and/or antimicrobial activity)
microorganisms; P. aeruginosa
  Organism, effect: P. aeruginosa (C)
microorganisms; S. epidermidis
  Organism, effect: S. epidermidis (D)
bacteria
  Target(s): M. luteus; also recorded: P. aeruginosa; also recorded: E. faecalis

## PF-235 (GIPFSKPHKRQVNYMKSDVLAYIEQNKMAHTA; Peptide with targeting and/or antimicrobial activity)
microorganisms; M. luteus
  Organism, effect: M. luteus (T)
bacteria
  Target(s): S. epidermidis; also recorded: M. luteus

## PF-590 (YYQAKLFPLL; Peptide with targeting and/or antimicrobial activity)
microorganisms; C. jejuni
  Organism, effect (morphology, biofilm and growth disruption): C. jejuni (R)
bacteria
  Target(s) (microorganisms bound by the targeting peptide): S. epidermidis; also recorded: M. luteus; also recorded: E. coli; also recorded: E. faecalis; also recorded: C. jeikeium

## PF-657 (chain 1 YVANYTITQFGRDFDDRLAVAIHFA; chain 2 YVANYTITQFGRDFDDRLAVAIHFA; Peptide with targeting and/or antimicrobial activity)
microorganisms; C. jeikeium
  Organism, effect (morphology, biofilm and growth disruption): C. jeikeium (D)
microorganisms; E. faecalis
  Organism, effect (morphology, biofilm and growth disruption): E. faecalis (D)
microorganisms; MRSA
  Organism, effect (morphology, biofilm and growth disruption): MRSA (D)
microorganisms; S. epidermidis
  Organism, effect (morphology, biofilm and growth disruption): S. epidermidis (C)
microorganisms; S. pneumoniae
  Organism, effect (morphology, biofilm and growth disruption): S. pneumoniae (H)
bacteria
  Target(s) (microorganism bound by the targeting peptide): Mycobacteria spp

## PF-584 (SYIKNLSNQKFLIAF; Peptide with targeting and/or antimicrobial activity)
microorganisms; C. jejuni
  Organism, effect (morphology, biofilm and growth disruption): C. jejuni (D)
microorganisms; E. coli
  Organism, effect (morphology, biofilm and growth disruption): E. coli (C)
microorganisms; E. faecalis
  Organism, effect (morphology, biofilm and growth disruption): E. faecalis (D)
microorganisms; MRSA
  Organism, effect (morphology, biofilm and growth disruption): MRSA (D)
microorganisms; S. epidermidis
  Organism, effect (morphology, biofilm and growth disruption): S. epidermidis (C)
microorganisms; S. pneumoniae
  Organism, effect (morphology, biofilm and growth disruption): S. pneumoniae (D)
bacteria
  Target(s) (microorganisms bound by the targeting peptide): S. epidermidis and M. luteus and P. mirabilis and C. albicans and MRSA and S. pneumoniae and E. faecalis and C. jeikeium
